These results are taken from patent US20150056191A1, “IGF1 BIOMARKER FOR IGF1R INHIBITOR THERAPY” (MERCK SHARP & DOHME CORP., priority 2012, published 2015).

“Also recorded” adds a separate entry of the source. Where two headings read alike, the source gives them in different places.

In one series the test system is H2122 NSCLC cells. In words: H2122 cell growth with and without IGF1 (Cell Titer-Glo). The settings on record: 10 ug/ml MK-0646, 96 hours, 2% fetal calf serum. The class given is cell-based. Here is the method:
H2122 cells were obtained from the American Type Culture Collection (ATCC) and propagated according to the conditions provided by ATCC in media at 37° C. H2122 cells in low serum (2% fetal calf serum (Hyclone), at 2000 cells/well, were plated in a 96 well plate and incubated with 10 ug/ml MK-0646 or vehicle control for 96 hours in the presence or absence of IGF1 (10 ng; SIGMA). Cells were harvested at day 0 and day 4 and cell growth was measured by Cell Titer-Glo® ([…]) according to manufacturer instructions. The relative cell proliferation was calculated by normalizing to day 0 levels.

The next series has as its target IGF1 receptor (Homo sapiens, UniProt P08069). Nature of the series: Blocking of IGF1 binding to the IGF1 receptor.
In series [1] the test system is primary colorectal xenograft tumor models. Nature of the series: Primary colorectal xenograft tumor models, tumor growth inhibition. In kind it is in vivo. Here is the method:
Primary colorectal xenograft tumor models were established from 10 independent colorectal tumors obtained directly from cancer patients. The relative levels of IGF1RNA expression were determined by gene expression profiling using genomic microarrays. […] These preclinical data provided in vivo evidence that increase sensitivity to the anti-IGF1R antibody, MK-0646, was strongly associated with increase IGF1RNA expression in the primary tumors.

The conditions of series [2]: cited from earlier work.

On to “MK-0646: anti-IGF1R monoclonal antibody dalotuzumab (MK0646; CAS no. 1005389-60-5)”, for which, in the series on H2122 NSCLC cells (in the absence of IGF1), the “proliferation of H2122 cells” value is on record as “did not significantly alter”. Also, the “IGF1-dependent proliferation / relative cell growth of H2122 cells” value in the series on H2122 NSCLC cells (in the presence of IGF1 (10 ng)) is given as “statistically significant growth inhibition; also recorded: significantly blocked”. For the same substance, the “blocking IGF1 ability to bind directly to the IGF1 receptor” value in the series with IGF1 receptor is given as “capable of blocking”. Further, the tumor growth inhibition entry is given as “at least 50%” in series [1] (the 2 colorectal xenograft models with increased IGF1 RNA expression) and “minimal or no tumor growth inhibition” in series [1] (the 8 xenograft tumor models with low IGF1 expression). For the same substance, the MTD in series [2] (with G alone) is listed as 10 mg/kg; in series [2] (with Gemcitabine (G) and Erlotinib (E)) it was 5 mg/kg.
